Assay results reported in US9346787B2, “Piperidine compound or salt thereof” (TAIHO PHARMACEUTICAL CO., LTD., priority 2012, dated 2016).

Key:
[1] = test system: human uterine cervical cancer cell line (Hela-Luc); experiment: Evaluation of the anti-tumor effect (1), Hela-Luc subcutaneous transplant; details: for BWC (body weight change) / RTV (relative tumor volume): paclitaxel 30 mg/kg i.v. day 1, compound 60 mg/kg orally twice a day on day 2 and day 3; for potentiation of the anti-tumor effect of paclitaxel (in words): combination with paclitaxel versus paclitaxel-only group
From the text: The luciferase-introduced human uterine cervical cancer cell line (Hela-Luc) was subcutaneously transplanted into a nude mouse, and when the volume of the grafted tumor reached 100 to 200 mm^3, five mice in one group were grouped into the single drug administration group and combinational administration group by a randomized stratification method so as to achieve a uniform tumor volume in each group (day 1). […] In order to compare the anti-tumor effect brought about by drug administration, setting the tumor volume at the time of grouping at 1, the relative tumor volume (RTV) was determined in accordance with the following formula as a rate of tumor proliferation. RTV=(Tumor volume on the day of measurement of tumor volume)/(Tumor volume at the time of grouping)
Meanwhile, as the index of systemic toxicity caused by drug administration, the body weight change (BWC) was used. BWC (%)=([(Body weight of mouse on the day of body weight measurement)−(Body weight of mouse at the time of grouping)]/(Body weight of mouse at the time of grouping))×100

human aurora A = human aurora A (Homo sapiens (Human), UniProt O14965); experiment: Inhibitory activity on aurora A kinase (IMAP fluorescence polarization); format: biochemical
Chain of human aurora A (O14965 whole entry): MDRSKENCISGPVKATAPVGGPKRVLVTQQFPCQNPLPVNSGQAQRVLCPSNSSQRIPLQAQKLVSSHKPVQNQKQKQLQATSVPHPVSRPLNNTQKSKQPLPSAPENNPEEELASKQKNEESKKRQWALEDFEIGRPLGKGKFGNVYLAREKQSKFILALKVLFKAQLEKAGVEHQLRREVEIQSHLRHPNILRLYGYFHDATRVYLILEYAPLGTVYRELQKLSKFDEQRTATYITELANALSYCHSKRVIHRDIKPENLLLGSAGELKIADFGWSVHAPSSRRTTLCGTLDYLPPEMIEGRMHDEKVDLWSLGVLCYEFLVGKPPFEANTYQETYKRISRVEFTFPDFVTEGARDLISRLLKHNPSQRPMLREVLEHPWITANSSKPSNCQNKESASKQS
Experimental: (§1) The inhibitory activity of a test compound on aurora A and aurora B was measured in accordance with the following method.
The cDNA encoding human aurora A having a N-term fused histidine tag was inserted into an expression vector and this protein was expressed at a high level in the E. coli BL21-CodonPlus (DE3)-RIL strain. The E. coli were collected and solubilized, and histidine tag-fused human aurora A protein was extracted by adsorption to a nickel chelate column and then eluted with imidazole from the column. The active fraction was desalted with a desalting column, whereby a purified enzyme was obtained.

human aurora B = human aurora B (Homo sapiens (Human), UniProt Q96GD4); experiment: Inhibitory activity on aurora B kinase; format: biochemical; details: ATP 40 μM, 60 minutes
Chain of human aurora B (Q96GD4 whole entry): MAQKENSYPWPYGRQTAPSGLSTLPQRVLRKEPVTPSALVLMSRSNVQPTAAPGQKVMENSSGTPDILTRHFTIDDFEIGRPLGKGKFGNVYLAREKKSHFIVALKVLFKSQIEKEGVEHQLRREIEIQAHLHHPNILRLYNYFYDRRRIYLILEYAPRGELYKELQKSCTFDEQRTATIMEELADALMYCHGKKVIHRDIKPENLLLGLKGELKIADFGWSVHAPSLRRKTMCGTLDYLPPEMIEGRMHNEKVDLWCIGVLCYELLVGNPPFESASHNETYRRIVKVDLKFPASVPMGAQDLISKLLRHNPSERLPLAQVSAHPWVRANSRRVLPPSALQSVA
Chain of human aurora B (Q9NQS7 803-918 partner): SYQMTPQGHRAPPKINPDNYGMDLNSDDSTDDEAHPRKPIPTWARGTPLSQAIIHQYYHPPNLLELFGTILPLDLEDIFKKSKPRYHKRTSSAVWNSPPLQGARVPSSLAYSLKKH
Experimental: as §1

[2] = Evaluation of oral absorbability (plasma concentration after oral administration); format: in vivo; details: 0.5% HPMC, BALB/cA mouse, plasma 0.5-6 hours
Experimental: The test compound was suspended or dissolved in 0.5% HPMC and orally administered to a BALB/cA mouse. The blood was drawn from the retro-orbital venous plexus 0.5, 1, 2, 4, and 6 hours after oral administration to obtain plasma. The concentration of the compound in the plasma thus obtained was measured by LCMS and the oral absorbability was evaluated.

[3] = test system: human uterine cervical cancer cell line (Hela-Luc); experiment: Evaluation of the anti-tumor effect (2), Hela-Luc subcutaneous transplant; format: in vivo, nude mouse; details: for BWC (body weight change) / RTV (relative tumor volume): Day 11, paclitaxel 20 mg/kg i.v. day 1; for potentiation of the anti-tumor effect of paclitaxel (in words): combination with paclitaxel versus paclitaxel-only group
[4] = Compound 13 30 mg/kg orally twice a day on day 2 and day 3
[5] = Compound 22 100 mg/kg (single) or 60 mg/kg (combination) orally twice a day on day 2 and day 3

For `O=C(c1cccc(Cl)c1F)N1CCC(Cc2cccc(Nc3cc[nH]n3)n2)(c2n[nH]c(=O)o2)CC1` [Comparative Example 1, 5-(1-(3-chloro-2-fluorobenzoyl)-4-((6-(1H-pyrazol-3-ylamino)pyridin-2-yl)methyl)piperidin-4-yl)-1,3,4-oxadiazol-2(3H)-one], the “BWC (body weight change)” value ([1]; Day 23) was 11.6%, the “RTV (relative tumor volume)” value ([1]; Day 23) was 15.23 and the “potentiation of the anti-tumor effect of paclitaxel (in words)” value (“potentiation” for short) [1] was “did not clearly potentiate the anti-tumor effect”.

For `Cc1cc(Nc2nc(CC3(C(=O)O)CCN(C(=O)c4cccc(Cl)c4F)CC3)ccc2C#N)n[nH]1` [Comparative Example 6, 1-(3-chloro-2-fluorobenzoyl)-4-((5-cyano-6-(5-methyl-H-pyrazol-3-ylamino)pyridin-2-yl)methyl)piperidine-4-carboxylic acid], the IC50 (human aurora A; ATP 5 μM, 25° C., 50 minutes) was 220 nM, the “inhibitory activity on aurora A and selectivity for aurora A (in words)” value (human aurora A; compared with aurora B and with MLN8237) was “did not exhibit either inhibitory activity on aurora A or selectivity for aurora A” and the IC50 (human aurora B) was 320 nM.

With `Cc1cc(Nc2nc(CC3(C(=O)O)CCN(C(=O)c4cccc(Cl)c4Cl)CC3)ccc2F)n[nH]1` [Example 1, 1-(2,3-dichlorobenzoyl)-4-((5-fluoro-6-(5-methyl-1H-pyrazol-3-ylamino)pyridin-2-yl)methyl)piperidine-4-carboxylic acid] the “oral absorbability (plasma concentration after oral administration)” value (from here on “oral absorbability”) [2] was “favorable oral absorbability”, the “BWC (body weight change)” value ([1]; Day 23) was 11.6% and the “RTV (relative tumor volume)” value ([1]; Day 23) was 10.47. The “potentiation” value [1] was “remarkably potentiated”.

For `COc1ccc(CC2(C(=O)O)CCN(C(=O)c3cccc(Cl)c3F)CC2)nc1Nc1cc(C)[nH]n1` [Example 11, 1-(3-chloro-2-fluorobenzoyl)-4-((5-methoxy-6-(5-methyl-1H-pyrazol-3-ylamino)pyridin-2-yl)methyl)piperidine-4-carboxylic acid], the “oral absorbability” value [2] was “favorable oral absorbability”.

With `Cc1cc(Nc2nc(CC3(C(=O)O)CCN(C(=O)c4cccc(Cl)c4F)CC3)ccc2Cl)n[nH]1` [Example 12, 1-(3-chloro-2-fluorobenzoyl)-4-((5-chloro-6-(5-methyl-1H-pyrazol-3-ylamino)pyridin-2-yl)methyl)piperidine-4-carboxylic acid] the “oral absorbability” value [2] was “favorable oral absorbability”.

In the case of `Cc1cc(Nc2nc(CC3(C(=O)O)CCN(C(=O)c4cccc(Cl)c4F)CC3)ccc2F)n[nH]1` [Example 13, 1-(3-chloro-2-fluorobenzoyl)-4-((5-fluoro-6-(5-methyl-1H-pyrazol-3-ylamino)pyridin-2-yl)methyl)piperidine-4-carboxylic acid], the “oral absorbability” value [2] is reported as “favorable oral absorbability”, the “BWC (body weight change)” value [3, 4] is reported as 6.0% and the “RTV (relative tumor volume)” value [3, 4] is reported as 6.54. The “potentiation” value [3] was “remarkably potentiated”.

Molecule `Cc1cc(Nc2nc(CC3(C(=O)N4CCC4)CCN(C(=O)c4cccc(Cl)c4F)CC3)ccc2F)n[nH]1` [Example 19, azetidin-1-yl(1-(3-chloro-2-fluorobenzoyl)-4-((5-fluoro-6-(5-methyl-1H-pyrazol-3-ylamino)pyridin-2-yl)methyl)piperidin-4-yl)methanone] has an IC50 (human aurora B) of 680 nM.

In the case of `Cc1cc(Nc2nc(CC3(c4noc(C)n4)CCN(C(=O)c4cccc(Cl)c4F)CC3)ccc2F)n[nH]1` [Example 22, (3-chloro-2-fluorophenyl)(4-((5-fluoro-6-(5-methyl-1H-pyrazol-3-ylamino)pyridin-2-yl)methyl)-4-(5-methyl-1,2,4-oxadiazol-3-yl)piperidin-1-yl)methanone], the “oral absorbability” value [2] is reported as “favorable oral absorbability”, the “BWC (body weight change)” value [3, 5] is reported as 6.9% and the “RTV (relative tumor volume)” value [3, 5] is reported as 4.66. For the same molecule, the “potentiation” value [3] was “remarkably potentiated”.

With `CC(=O)O[C@H]1C(=O)[C@@]2(C)[C@H]([C@H](OC(=O)c3ccccc3)[C@]3(O)C[C@H](OC(=O)[C@H](O)[C@@H](NC(=O)c4ccccc4)c4ccccc4)C(C)=C1C3(C)C)[C@]1(OC(C)=O)CO[C@@H]1C[C@@H]2O` [Paclitaxel, paclitaxel] the “BWC (body weight change)” value [3, 4] was 5.4%, the “RTV (relative tumor volume)” value [3, 4] was 2.90 and the “BWC (body weight change)” value [3, 5] was 7.8%. For the same molecule, the “RTV (relative tumor volume)” value [3, 5] was 3.05, the “BWC (body weight change)” value ([1]; Day 23) was 3.0% and the “RTV (relative tumor volume)” value ([1]; Day 23) was 0.69. The “BWC (body weight change)” value ([1]; Day 46) was 11.6%, the “RTV (relative tumor volume)” value ([1]; Day 46) was 5.38 and the “DCR (disease control rate)” value ([1]; Day 46, ratio of individuals in which RTV does not exceed 1) was 40%.
